ChEMBL document CHEMBL5291721, “A preclinical secondary pharmacology resource illuminates target-adverse drug reaction associations of marketed drugs” (Nat Commun, 2023)

Columns and labels:
Histamine H1 receptor = Histamine H1 receptor (Homo sapiens, UniProt P35367)
Thromboxane A2 receptor = target: T1, Thromboxane A2 receptor (Homo sapiens, UniProt P21731)
T1 sequence (P21731 whole entry): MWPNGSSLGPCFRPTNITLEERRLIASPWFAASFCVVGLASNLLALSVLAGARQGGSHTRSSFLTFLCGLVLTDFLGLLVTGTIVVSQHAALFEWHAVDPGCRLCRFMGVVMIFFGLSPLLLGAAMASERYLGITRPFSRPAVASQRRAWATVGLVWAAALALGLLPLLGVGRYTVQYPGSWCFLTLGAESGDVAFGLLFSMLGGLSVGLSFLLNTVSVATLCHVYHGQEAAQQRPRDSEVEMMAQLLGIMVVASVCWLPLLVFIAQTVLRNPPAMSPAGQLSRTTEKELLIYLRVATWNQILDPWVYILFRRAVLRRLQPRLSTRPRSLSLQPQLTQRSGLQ

[1] = target: T2, Muscarinic acetylcholine receptor M2 (Homo sapiens, UniProt P08172); type: functional, cell-based
T2 sequence (P08172 whole entry): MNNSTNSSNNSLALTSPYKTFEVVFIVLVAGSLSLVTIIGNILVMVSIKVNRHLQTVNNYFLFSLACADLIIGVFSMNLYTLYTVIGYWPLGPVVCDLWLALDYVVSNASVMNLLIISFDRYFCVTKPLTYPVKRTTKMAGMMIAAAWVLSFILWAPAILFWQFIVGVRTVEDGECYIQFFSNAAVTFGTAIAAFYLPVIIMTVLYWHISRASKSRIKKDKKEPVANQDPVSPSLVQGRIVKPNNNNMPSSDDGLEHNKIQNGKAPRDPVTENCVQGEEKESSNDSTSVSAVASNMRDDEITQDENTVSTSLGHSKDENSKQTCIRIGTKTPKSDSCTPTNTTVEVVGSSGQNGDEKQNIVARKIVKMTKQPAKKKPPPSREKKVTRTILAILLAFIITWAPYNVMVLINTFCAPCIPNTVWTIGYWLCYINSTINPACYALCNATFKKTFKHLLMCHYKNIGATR

[2] = target: T3, Cholecystokinin receptor type A (Homo sapiens, UniProt P32238)
T3 sequence (P32238 whole entry): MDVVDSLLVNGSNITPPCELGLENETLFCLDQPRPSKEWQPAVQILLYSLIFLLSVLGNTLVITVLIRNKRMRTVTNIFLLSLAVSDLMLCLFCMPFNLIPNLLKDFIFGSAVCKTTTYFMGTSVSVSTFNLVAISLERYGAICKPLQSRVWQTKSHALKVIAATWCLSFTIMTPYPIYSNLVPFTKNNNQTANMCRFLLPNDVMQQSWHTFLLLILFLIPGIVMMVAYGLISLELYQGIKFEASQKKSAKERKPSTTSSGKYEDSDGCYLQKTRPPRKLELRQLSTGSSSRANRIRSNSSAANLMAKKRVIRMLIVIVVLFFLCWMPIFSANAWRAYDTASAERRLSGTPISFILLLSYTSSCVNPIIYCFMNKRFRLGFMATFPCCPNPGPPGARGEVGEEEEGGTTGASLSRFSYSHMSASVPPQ

Endothelin-1 receptor = target: T4, Endothelin-1 receptor (Homo sapiens, UniProt P25101)
T4 sequence (P25101 whole entry): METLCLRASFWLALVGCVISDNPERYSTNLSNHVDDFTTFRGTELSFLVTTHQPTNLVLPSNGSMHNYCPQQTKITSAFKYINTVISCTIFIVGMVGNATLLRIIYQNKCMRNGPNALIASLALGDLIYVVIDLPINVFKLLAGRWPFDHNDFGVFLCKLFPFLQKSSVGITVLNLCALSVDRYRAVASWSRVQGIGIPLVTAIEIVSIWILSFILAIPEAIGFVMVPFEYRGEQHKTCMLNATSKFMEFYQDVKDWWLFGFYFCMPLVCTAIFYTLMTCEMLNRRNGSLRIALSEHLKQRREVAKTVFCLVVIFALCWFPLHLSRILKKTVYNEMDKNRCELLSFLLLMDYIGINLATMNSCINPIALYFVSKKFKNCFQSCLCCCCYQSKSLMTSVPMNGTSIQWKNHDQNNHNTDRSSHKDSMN

[3] = target: Gamma-aminobutyric acid receptor subunit alpha-1 (Rattus norvegicus, UniProt P62813)
[4] = target: Sodium-dependent serotonin transporter (Homo sapiens, UniProt P31645)
[5] = target: T5, Neuropeptide Y receptor type 1 (Homo sapiens, UniProt P25929)
T5 sequence (P25929 whole entry): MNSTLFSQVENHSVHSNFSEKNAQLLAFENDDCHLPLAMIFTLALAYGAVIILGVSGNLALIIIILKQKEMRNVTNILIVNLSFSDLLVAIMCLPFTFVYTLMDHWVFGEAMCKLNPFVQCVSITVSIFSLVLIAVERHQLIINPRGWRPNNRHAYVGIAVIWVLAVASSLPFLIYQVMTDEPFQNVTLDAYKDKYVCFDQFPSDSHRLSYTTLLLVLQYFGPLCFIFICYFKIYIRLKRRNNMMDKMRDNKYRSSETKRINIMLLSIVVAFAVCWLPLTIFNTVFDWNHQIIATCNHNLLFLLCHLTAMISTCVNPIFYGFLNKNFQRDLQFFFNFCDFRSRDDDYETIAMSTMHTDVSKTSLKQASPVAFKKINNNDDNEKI

[6] = target: T6, 5-hydroxytryptamine receptor 2B (Homo sapiens, UniProt P41595); type: functional, cell-based
[7] = target: T6, 5-hydroxytryptamine receptor 2B; type: functional, cell-based; remark: listed apart in the source
[8] = target: Kappa-type opioid receptor (Homo sapiens, UniProt P41145)
[9] = target: Growth hormone secretagogue receptor type 1 (Homo sapiens, UniProt Q92847)
Note: assay procedure not described here.

T6 sequence (P41595 whole entry): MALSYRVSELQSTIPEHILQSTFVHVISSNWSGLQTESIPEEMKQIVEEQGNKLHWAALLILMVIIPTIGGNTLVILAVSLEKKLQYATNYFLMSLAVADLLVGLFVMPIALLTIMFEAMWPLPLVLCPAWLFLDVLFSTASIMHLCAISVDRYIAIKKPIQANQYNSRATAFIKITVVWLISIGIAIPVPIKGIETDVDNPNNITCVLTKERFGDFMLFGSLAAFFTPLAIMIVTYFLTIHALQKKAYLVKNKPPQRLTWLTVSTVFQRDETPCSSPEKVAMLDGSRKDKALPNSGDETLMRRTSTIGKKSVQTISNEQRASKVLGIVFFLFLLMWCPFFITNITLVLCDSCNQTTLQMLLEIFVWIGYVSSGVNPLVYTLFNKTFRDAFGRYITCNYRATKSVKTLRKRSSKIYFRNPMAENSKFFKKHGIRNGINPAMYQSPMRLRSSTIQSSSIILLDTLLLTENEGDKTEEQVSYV
Sodium-dependent serotonin transporter, sequence (P31645 whole entry): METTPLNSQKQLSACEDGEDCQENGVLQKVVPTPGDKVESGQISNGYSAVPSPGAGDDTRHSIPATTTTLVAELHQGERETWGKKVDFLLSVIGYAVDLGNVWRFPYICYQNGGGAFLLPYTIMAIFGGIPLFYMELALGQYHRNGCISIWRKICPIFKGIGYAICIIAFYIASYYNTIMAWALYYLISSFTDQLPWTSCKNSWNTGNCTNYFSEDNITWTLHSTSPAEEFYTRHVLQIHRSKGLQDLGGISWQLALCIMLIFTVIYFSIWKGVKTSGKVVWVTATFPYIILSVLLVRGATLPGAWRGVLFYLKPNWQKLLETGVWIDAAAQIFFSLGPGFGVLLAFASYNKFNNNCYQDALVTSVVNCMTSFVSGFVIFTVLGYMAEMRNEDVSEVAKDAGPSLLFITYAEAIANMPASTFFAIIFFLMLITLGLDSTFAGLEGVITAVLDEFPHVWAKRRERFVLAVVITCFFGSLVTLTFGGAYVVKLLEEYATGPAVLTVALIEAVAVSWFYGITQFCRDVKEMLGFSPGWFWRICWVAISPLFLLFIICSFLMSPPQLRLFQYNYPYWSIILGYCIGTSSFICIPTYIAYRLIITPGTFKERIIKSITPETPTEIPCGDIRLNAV
Gamma-aminobutyric acid receptor subunit alpha-1, sequence (P62813 whole entry): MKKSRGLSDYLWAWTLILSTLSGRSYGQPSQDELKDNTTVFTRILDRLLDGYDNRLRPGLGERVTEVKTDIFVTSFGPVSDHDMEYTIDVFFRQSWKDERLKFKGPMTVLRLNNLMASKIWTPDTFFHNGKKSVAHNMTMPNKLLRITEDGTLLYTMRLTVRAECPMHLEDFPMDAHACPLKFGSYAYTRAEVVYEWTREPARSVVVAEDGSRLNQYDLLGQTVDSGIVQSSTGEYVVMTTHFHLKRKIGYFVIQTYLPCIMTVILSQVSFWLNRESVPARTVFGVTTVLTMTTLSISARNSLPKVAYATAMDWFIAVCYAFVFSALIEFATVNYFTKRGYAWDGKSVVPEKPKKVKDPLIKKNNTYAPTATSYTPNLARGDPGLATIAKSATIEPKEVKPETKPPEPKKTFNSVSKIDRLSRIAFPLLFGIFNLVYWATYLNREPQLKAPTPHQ
Growth hormone secretagogue receptor type 1, sequence (Q92847 whole entry): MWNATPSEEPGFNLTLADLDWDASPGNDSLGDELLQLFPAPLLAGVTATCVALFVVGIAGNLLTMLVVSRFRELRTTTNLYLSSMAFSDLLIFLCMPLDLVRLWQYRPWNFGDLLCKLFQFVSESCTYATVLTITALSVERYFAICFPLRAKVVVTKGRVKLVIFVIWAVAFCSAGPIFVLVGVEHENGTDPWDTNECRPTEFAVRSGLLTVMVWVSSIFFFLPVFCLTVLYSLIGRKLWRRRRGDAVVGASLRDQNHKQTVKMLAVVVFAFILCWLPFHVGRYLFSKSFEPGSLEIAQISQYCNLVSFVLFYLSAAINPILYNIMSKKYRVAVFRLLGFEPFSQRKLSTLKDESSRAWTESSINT
Histamine H1 receptor, sequence (P35367 whole entry): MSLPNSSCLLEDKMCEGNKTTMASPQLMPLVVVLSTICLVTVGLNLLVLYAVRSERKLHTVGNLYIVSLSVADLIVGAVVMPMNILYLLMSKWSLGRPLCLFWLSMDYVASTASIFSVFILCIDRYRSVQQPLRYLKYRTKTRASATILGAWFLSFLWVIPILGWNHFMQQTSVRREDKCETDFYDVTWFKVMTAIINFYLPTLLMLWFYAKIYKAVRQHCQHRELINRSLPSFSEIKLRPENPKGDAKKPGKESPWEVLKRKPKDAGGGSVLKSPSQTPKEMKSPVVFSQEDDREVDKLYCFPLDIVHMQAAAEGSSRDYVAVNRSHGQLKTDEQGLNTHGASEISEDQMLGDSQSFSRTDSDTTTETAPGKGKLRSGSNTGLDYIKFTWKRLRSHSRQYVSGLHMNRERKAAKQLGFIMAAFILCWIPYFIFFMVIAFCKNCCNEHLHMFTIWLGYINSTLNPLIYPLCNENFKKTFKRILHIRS
Kappa-type opioid receptor, sequence (P41145 whole entry): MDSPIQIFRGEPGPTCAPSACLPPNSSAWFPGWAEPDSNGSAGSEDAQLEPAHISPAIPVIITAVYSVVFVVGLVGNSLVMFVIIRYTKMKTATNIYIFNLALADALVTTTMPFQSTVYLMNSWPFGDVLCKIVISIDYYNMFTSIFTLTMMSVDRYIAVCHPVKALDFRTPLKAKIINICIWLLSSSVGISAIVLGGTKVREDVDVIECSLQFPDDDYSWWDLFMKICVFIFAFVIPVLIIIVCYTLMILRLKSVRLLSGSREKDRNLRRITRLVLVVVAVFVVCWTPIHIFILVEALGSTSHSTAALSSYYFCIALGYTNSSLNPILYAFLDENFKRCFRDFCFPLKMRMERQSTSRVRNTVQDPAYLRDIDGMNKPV

SMILES	AC50 (Histamine H1 receptor)	AC50 (Thromboxane A2 receptor)	AC50 [1]	AC50 [2]	AC50 (Endothelin-1 receptor)	AC50 [3]	AC50 [4]	AC50 [5]	AC50 [6]	AC50 [7]	AC50 [8]	AC50 [9]
N#Cc1ccccc1-c1cc(-c2ccccn2)cn(-c2ccccc2)c1=O	> 30 µM	> 30 µM	> 30 µM	> 30 µM	> 30 µM	> 30 µM	> 30 µM	> 30 µM	> 30 µM	> 30 µM	> 30 µM	> 30 µM
N=C(N)NCCCCCCC(=O)NC(O)C(=O)NCCCCNCCCN (configuration not stated)	> 30 µM	> 30 µM	> 30 µM	> 30 µM	> 30 µM	> 30 µM	> 30 µM	> 30 µM	> 30 µM	> 30 µM	> 30 µM	> 30 µM
C=C[C@@]1(C)CC(=O)[C@]2(O)[C@@]3(C)[C@@H](O)CCC(C)(C)[C@@H]3[C@H](OC(=O)CCN(C)C)[C@H](OC(C)=O)[C@@]2(C)O1	> 30 µM	> 30 µM	> 30 µM	> 30 µM	> 30 µM	> 30 µM	> 30 µM	> 30 µM	> 30 µM	> 30 µM	> 30 µM	> 30 µM
O=C(CCCN1CCC(n2c(O)nc3ccccc32)CC1)c1ccc(F)cc1 [BENPERIDOL]	0.73 µM	> 30 µM	2.64 µM	> 30 µM	> 30 µM	> 30 µM	> 30 µM	> 30 µM	6.59 µM	> 30 µM	1.15 µM	17 µM
CCN(CC)C(=O)C1CN2CCc3cc(OC)c(OC)cc3C2CC1OC(C)=O (configuration not stated) [BENZQUINAMIDE]	> 30 µM	> 10 µM	> 30 µM	> 30 µM	> 30 µM	> 30 µM	> 30 µM	> 30 µM	0.32 µM	> 30 µM	> 30 µM	> 30 µM
CCC(=O)OCC(=O)[C@@]1(OC(=O)CC)[C@@H](C)C[C@H]2[C@@H]3CCC4=CC(=O)C=C[C@]4(C)[C@@]3(F)[C@@H](O)C[C@@]21C [BETAMETHASONE DIPROPIONATE]	> 30 µM	> 30 µM	> 30 µM	> 30 µM	> 30 µM	> 30 µM	> 30 µM	> 30 µM	> 30 µM	> 30 µM	> 30 µM	> 30 µM
CCOC(=O)NNc1ccc(N(CC)CC(C)O)nn1 (configuration not stated) [CADRALAZINE]	> 30 µM	> 30 µM	> 30 µM	> 30 µM	> 30 µM	> 30 µM	> 30 µM	> 30 µM	> 30 µM	> 30 µM	> 30 µM	> 30 µM
CCCC(C)(COC(N)=O)COC(=O)NC(C)C (configuration not stated) [CARISOPRODOL]	> 10 µM	> 30 µM	> 10 µM	> 30 µM	> 30 µM	> 10 µM	> 10 µM	> 30 µM	> 10 µM	> 10 µM	> 10 µM	> 30 µM
COCCOC(=O)C1=C(C)NC(C)=C(C(=O)OC/C=C/c2ccccc2)C1c1cccc([N+](=O)[O-])c1 (configuration not stated) [CILNIDIPINE]	> 30 µM	21 µM	> 30 µM	> 30 µM	> 30 µM	> 30 µM	> 30 µM	> 30 µM	> 30 µM	> 30 µM	> 30 µM	> 30 µM
CCC(C)(Oc1ccc(C2(c3ccc(OC(C)(CC)C(=O)O)cc3)CCCCC2)cc1)C(=O)O (configuration not stated) [CLINOFIBRATE]	> 30 µM	> 30 µM	> 30 µM	> 30 µM	> 30 µM	> 30 µM	> 30 µM	> 30 µM	> 30 µM	> 30 µM	> 30 µM	> 30 µM
N[C@H](Cc1cc(I)c(Oc2cc(I)c(O)c(I)c2)c(I)c1)C(=O)O [DEXTROTHYROXINE]	> 10 µM	21.9 µM	> 10 µM	> 30 µM	> 30 µM	> 10 µM	> 30 µM	> 30 µM	26 µM	> 10 µM	> 10 µM	> 30 µM
CCCCC[C@H](O)/C=C/[C@H]1[C@H](O)CC(=O)[C@@H]1C/C=C\CCCC(=O)O [DINOPROSTONE]	> 30 µM	3.5 µM	> 30 µM	> 30 µM	> 30 µM	> 30 µM	> 30 µM	> 30 µM	> 30 µM	> 30 µM	22 µM	> 30 µM
CC(C)c1cc2c(cc1S(=O)(=O)O)[C@@]1(C)CCC[C@@](C)(C(=O)O)[C@@H]1CC2 [ECABET]	> 30 µM	> 30 µM	> 30 µM	> 30 µM	> 30 µM	> 30 µM	> 30 µM	> 30 µM	> 30 µM	> 30 µM	19 µM	> 30 µM
CCCN(CC)C(CC)C(=O)Nc1c(C)cccc1C (configuration not stated) [ETIDOCAINE]	> 30 µM	> 30 µM	> 30 µM	> 30 µM	> 30 µM	> 30 µM	> 30 µM	> 30 µM	> 30 µM	> 30 µM	> 30 µM	> 30 µM
O=C(O)c1ccccc1Nc1cccc(C(F)(F)F)c1 [FLUFENAMIC ACID]	0.082 µM	> 30 µM	> 10 µM	> 30 µM	> 30 µM	> 10 µM	> 30 µM	> 30 µM	> 30 µM	> 30 µM	> 30 µM	> 30 µM
C#C[C@]1(O)CC[C@H]2[C@@H]3CCC4=CC(=O)CCC4=C3C=C[C@@]21CC [GESTRINONE]	> 30 µM	> 30 µM	> 30 µM	> 30 µM	> 30 µM	> 30 µM	0.033 µM	> 30 µM	24 µM	> 30 µM	23 µM	> 30 µM
